{"source": "ChEMBL document CHEMBL1201862", "about": "“PubChem BioAssay data set” (2004)", "key": {"[1]": {"test": "blockade of melanocortin 4 receptor signaling – cell-based, plate reader, cherry pick, counter-screen for LGR2 antagonist project, dose response (AID 743444);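 note: transfected HEK 293 cells stimulated with alpha-MSH peptide; potency of inhibitors of the alpha-MSH evoked signal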", "format": "functional"}, "[2]": {"test": "blockers of bursicon-stimulated LGR2 cAMP reporter – cell-based, HEK293, CRE-luciferase reporter, cherry pick, set 2, dose response (AID 743343);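 note: transfected cells were stimulated with diluted bursicon conditioned medium after compound addition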", "format": "functional"}, "[3]": {"test": "A Cell Based Secondary Assay To Explore Cytotoxicity of Compounds that Sensitize Mycobacterium Tuberculosis to Beta-Lactam Antibiotics.", "format": "functional"}, "Cytochrome P450 1A2": {"biological_target": "T1, Cytochrome P450 1A2 (Homo sapiens, UniProt P05177)", "T1 sequence (P05177 whole entry)": "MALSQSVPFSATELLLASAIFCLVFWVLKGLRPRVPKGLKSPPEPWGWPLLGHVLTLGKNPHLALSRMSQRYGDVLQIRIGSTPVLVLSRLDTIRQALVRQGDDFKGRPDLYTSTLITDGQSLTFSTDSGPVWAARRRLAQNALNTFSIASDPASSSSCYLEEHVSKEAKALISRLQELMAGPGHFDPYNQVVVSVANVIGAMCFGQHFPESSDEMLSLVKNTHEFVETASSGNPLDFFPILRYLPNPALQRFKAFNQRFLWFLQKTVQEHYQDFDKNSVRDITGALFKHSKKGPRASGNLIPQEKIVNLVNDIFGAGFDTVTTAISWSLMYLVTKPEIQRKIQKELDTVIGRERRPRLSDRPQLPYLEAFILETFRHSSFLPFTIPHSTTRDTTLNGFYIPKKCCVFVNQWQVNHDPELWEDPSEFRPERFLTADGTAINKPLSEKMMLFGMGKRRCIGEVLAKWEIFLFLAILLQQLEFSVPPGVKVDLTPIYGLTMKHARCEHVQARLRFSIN"}, "Beta-galactosidase": {"biological_target": "Beta-galactosidase (Escherichia coli, UniProt Q8VNN2)", "sequence (Q8VNN2 whole entry)": "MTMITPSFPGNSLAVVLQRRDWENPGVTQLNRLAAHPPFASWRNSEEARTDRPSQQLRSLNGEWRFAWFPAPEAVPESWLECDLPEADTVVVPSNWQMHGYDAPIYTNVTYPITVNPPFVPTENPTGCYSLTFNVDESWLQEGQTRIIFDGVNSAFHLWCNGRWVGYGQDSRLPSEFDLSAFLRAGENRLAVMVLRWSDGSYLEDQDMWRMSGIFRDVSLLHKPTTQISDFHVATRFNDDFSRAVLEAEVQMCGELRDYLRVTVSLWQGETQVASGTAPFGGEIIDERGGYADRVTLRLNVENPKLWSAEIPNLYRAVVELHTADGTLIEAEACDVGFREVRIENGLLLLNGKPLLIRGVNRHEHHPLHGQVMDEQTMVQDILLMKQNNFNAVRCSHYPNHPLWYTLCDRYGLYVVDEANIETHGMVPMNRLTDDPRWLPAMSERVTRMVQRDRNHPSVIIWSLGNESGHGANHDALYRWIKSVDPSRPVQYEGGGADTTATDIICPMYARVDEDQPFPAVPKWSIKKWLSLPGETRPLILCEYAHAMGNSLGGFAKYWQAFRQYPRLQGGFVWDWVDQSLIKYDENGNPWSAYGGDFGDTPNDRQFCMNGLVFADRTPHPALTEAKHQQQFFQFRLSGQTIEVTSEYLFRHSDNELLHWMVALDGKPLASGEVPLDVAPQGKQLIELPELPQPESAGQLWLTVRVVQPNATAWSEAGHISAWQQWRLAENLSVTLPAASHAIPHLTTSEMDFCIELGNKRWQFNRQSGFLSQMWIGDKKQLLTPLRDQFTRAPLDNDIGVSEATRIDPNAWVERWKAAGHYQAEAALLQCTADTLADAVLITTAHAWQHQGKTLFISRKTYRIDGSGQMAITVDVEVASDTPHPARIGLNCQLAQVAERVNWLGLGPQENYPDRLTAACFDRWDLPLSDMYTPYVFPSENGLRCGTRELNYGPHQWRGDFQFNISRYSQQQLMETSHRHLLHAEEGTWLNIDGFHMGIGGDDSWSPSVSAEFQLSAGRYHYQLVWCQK", "test": "Dose response counterscreen for EBI2 assay utilizing the enzyme, b-galactosidase.", "format": "functional"}, "[4]": {"biological_target": "Luciferin 4-monooxygenase (Photinus pyralis, UniProt P08659)", "sequence (P08659 whole entry)": "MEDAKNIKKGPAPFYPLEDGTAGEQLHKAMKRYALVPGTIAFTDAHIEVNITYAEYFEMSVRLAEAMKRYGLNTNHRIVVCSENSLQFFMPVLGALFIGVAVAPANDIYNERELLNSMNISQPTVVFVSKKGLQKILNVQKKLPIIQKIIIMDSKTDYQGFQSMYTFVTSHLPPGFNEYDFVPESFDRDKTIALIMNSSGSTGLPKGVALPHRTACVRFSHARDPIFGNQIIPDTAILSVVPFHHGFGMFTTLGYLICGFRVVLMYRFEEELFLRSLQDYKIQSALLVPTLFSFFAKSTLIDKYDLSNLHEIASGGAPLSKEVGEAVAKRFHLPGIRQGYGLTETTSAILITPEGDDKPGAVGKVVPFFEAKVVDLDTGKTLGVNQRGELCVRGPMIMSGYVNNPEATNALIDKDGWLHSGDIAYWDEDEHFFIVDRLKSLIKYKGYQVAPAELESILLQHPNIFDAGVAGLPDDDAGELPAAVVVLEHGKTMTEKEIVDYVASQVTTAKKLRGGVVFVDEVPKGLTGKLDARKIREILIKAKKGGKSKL", "test": "inhibition of purified Photinus pyralis luciferase – biochemical, luminescence, dose response (AID 1891)"}, "[5]": {"test": "Luminescence Cell-Based Dose Confirmation HTS to Identify Inhibitors of Platelet Dense Granule Release. [Related pubchem assays: 1663 (Primary HTS), 1678 (Summary of Project)]", "format": "functional"}, "Cytochrome P450 3A4": {"biological_target": "Cytochrome P450 3A4 (Homo sapiens, UniProt P08684)", "sequence (P08684 whole entry)": "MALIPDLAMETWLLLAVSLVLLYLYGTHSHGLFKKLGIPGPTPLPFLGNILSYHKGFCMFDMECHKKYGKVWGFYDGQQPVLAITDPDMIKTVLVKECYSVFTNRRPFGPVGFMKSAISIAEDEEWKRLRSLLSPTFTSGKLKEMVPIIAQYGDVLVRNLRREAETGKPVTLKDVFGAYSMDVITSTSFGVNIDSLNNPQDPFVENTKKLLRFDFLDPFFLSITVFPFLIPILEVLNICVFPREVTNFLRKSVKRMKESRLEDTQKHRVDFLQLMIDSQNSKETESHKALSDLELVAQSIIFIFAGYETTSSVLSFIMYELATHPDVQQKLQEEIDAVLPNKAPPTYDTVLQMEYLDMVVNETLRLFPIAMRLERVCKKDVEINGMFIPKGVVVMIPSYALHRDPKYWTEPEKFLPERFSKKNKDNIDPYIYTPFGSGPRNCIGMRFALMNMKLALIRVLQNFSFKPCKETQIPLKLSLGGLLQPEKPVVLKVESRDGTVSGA"}, "[6]": {"test": "P. falciparum Dd2 growth inhibitors, dose response, SYBR Green, cherry-picked samples (AID 1159567)", "format": "functional, cell-based"}, "[7]": {"test": "toxicity to human hepatoma HepG2 cells – cell-based, cherry-picked samples, cytotoxicity control, dose response (AID 1159577)", "format": "functional"}, "[8]": {"test": "activation of miR-122 Renilla sensor silencing – cell-based, Huh7 psiCHECK-miR122, Renilla luciferase, cherry-picked, dose response (AID 651956);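 note: huh7 hepatoma cells stably carrying a psiCHECK-2 miR-122 sensor plasmid; renilla luciferase signal reporting endogenous miR-122 activity after 48 h compound exposure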", "format": "functional"}, "[9]": {"biological_target": "Glyceraldehyde-3-phosphate dehydrogenase (Homo sapiens, UniProt P04406)", "sequence (P04406 whole entry)": "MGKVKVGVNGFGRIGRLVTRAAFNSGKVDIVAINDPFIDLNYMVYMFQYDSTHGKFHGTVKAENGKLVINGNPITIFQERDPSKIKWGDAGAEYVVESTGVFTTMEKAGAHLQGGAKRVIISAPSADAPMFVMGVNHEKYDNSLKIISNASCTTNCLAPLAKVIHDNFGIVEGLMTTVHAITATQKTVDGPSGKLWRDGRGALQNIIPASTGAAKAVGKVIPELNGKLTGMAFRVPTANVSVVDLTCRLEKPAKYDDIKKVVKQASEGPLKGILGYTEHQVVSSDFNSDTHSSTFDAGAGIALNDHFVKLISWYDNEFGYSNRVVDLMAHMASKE"}, "Bcl-2-related protein A1 [10]": {"biological_target": "T2, Bcl-2-related protein A1 (Mus musculus, UniProt Q07440)", "T2 sequence (Q07440 whole entry)": "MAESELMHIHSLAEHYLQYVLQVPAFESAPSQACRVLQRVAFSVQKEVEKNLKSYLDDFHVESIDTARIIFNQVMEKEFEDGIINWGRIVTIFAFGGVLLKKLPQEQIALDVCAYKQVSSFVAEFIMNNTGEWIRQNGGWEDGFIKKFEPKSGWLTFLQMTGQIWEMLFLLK", "test": "small-molecule antagonists of Bfl-1/BH3 interaction – biochemical, TR-FRET, mouse Bfl-1, confirmation (AID 621);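 note: TR-FRET binding of GST-Bfl-1 to FITC-labelled Bid peptide via terbium antibody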"}, "Bcl-2-related protein A1 [11]": {"biological_target": "T2, Bcl-2-related protein A1", "test": "Bfl-1 binding inhibitors, SAR follow-up, biochemical, fluorescence polarization (AID 1070)"}, "[12]": {"test": "blockers of HIV-1 ZM109 envelope-driven cell-cell fusion – HeLa effector, CEM target cells, luciferase, cherry-pick, dose response (AID 652058)", "format": "functional, cell-based"}, "[13]": {"test": "HIV-1 AD8 envelope cell-cell fusion blockers – cherry-pick, dose response (AID 652062);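 note: potency is for inhibitors of fusion seen as a drop in luminescence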", "format": "functional, cell-based"}, "[14]": {"test": "viability of HCT116 lacking mutant beta-catenin – cell-based, human colon tumor, dose response (AID 1045);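 note: cells exposed to compound for 60 hours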", "format": "functional"}, "[15]": {"test": "off-target signal loss in HeLa-CEM21 co-culture – HeLa F-luc CTL cells, cherry-picked, counter-screen for HIV-1 Env fusion inhibitor project, dose response (AID 652040);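 note: potency for signal decrease marking cytotoxic or nonspecific inhibition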", "format": "functional, cell-based"}, "[16]": {"test": "viability of PTEN-deleted HCT116 cells – cell-based, HCT116 PTEN knockout, dose response (AID 1047);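 note: cells exposed to compound for 60 hours before readout; potency for loss of cell viability measured by luminescence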", "format": "functional"}, "[17]": {"test": "viability loss in CEM21 cells – cell-based, CellTiter-Glo luminescence, cherry-picked, cytotoxicity control for viral fusion inhibitor project, dose response (AID 652042);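 note: potency for signal decrease meaning cytotoxicity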", "format": "functional"}, "Prothrombin": {"biological_target": "Prothrombin (Homo sapiens, UniProt P00734)", "test": "Thrombin 1536 HTS Dose Response Confirmation. [Related pubchem assays: 1046 (Thrombin 1536 HTS; hits were confirmed in this assay)]", "format": "functional"}, "[18]": {"test": "viability loss in Vero cells – cytotoxicity control for Vif-APOBEC3G degradation inhibitor project, dose response (AID 1117358)", "format": "functional", "settings": "Vero"}, "Cytochrome P450 2C9 [19]": {"biological_target": "T3, Cytochrome P450 2C9 (Homo sapiens, UniProt P11712)", "T3 sequence (P11712 whole entry)": "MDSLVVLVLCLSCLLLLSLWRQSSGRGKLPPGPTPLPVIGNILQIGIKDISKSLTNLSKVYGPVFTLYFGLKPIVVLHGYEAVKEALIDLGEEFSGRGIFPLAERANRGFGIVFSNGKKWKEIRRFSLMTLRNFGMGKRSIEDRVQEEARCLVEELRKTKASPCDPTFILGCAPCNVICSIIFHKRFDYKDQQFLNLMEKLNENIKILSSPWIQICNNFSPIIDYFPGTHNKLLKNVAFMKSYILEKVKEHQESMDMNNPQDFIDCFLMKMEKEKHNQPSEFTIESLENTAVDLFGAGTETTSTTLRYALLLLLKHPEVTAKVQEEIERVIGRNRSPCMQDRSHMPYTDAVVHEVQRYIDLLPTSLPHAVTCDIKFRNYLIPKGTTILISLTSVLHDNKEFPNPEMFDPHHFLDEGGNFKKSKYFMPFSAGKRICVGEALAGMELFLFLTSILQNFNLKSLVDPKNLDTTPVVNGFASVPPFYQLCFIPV"}, "Cytochrome P450 2C19": {"biological_target": "Cytochrome P450 2C19 (Homo sapiens, UniProt P33261)", "sequence (P33261 whole entry)": "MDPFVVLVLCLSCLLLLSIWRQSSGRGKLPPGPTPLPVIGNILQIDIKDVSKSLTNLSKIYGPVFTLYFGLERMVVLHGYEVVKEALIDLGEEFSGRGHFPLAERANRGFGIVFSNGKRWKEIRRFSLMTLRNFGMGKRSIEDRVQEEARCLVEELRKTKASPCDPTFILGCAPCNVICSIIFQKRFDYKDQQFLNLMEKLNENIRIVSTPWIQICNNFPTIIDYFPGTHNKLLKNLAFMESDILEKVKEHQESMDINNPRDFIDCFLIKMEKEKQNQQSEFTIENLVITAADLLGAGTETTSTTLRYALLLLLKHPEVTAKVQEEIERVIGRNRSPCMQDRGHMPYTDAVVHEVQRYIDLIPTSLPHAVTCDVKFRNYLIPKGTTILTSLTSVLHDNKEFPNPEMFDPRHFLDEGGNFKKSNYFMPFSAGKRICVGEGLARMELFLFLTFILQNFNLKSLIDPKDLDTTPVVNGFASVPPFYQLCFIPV", "test": "Cytochrome panel assay with activity outcomes. Panel member name: p450-cyp2c19 Compounds with AC50 equal or less than 10 uM are considered active", "format": "functional", "settings": "read-out: AC50"}, "[20]": {"test": "DRD fibroblast viability loss – cell-based, non-viral oncogenic, luminescence, dose response (AID 1934)", "format": "functional", "settings": "Homo sapiens"}, "BJ [21]": {"tested_on": "BJ", "test": "growth inhibition of engineered Ras-driven BJ cells – cell-based, alamar blue fluorescence, cherrypicked samples, dose response (AID 2631)", "format": "functional", "settings": "Homo sapiens"}, "Paired box protein Pax-8": {"biological_target": "Paired box protein Pax-8 (Homo sapiens, UniProt Q06710)", "sequence (Q06710 whole entry)": "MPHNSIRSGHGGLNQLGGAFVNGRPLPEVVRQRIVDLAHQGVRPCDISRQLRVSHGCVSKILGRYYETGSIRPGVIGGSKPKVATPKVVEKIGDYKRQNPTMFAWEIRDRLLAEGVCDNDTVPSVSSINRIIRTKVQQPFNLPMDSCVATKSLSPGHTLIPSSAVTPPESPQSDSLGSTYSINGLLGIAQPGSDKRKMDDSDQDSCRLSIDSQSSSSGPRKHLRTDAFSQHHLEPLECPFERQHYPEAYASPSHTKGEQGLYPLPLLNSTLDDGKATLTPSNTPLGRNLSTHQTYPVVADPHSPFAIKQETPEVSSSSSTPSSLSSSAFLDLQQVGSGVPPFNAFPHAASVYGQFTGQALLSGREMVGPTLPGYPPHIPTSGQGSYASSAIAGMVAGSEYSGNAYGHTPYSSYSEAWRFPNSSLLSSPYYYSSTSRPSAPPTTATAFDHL", "test": "PAX8 transcriptional activity inhibition in RMG-I – RMG-I cells, luciferase, cherry-pick, dose response (AID 687027);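 note: luciferase reporter driven by Pax8 target thyroperoxidase promoter measured by SteadyGlo luminescence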", "format": "functional, cell-based"}, "BJ [22]": {"tested_on": "BJ", "test": "BJ-TERT fibroblast viability loss – cell-based, RAS-independent, luminescence, dose response (AID 1933)", "format": "functional", "settings": "Homo sapiens"}, "BJ [23]": {"tested_on": "BJ", "test": "cells", "format": "functional, cell-based", "settings": "Homo sapiens"}, "Cytochrome P450 2C9 [24]": {"biological_target": "T3, Cytochrome P450 2C9", "remark": "listed apart in the source"}, "INS1": {"tested_on": "INS1", "test": "INS-1E survival protection against cytokine death – cell-based, luminescence, retest, dose response (AID 449756);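 note: cell death triggered by IL-1 beta plus TNF-alpha plus IFN-gamma mixture; protective hits raise ATP signal compared with cytokine alone wells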", "format": "functional", "settings": "Rattus norvegicus"}, "BJ [25]": {"tested_on": "BJ", "test": "BJ-TERT-LT-ST fibroblast viability loss – cell-based, RAS-independent, luminescence, dose response (AID 1935);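 note: BJ fibroblasts immortalized with TERT plus LT and ST oncogenes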", "format": "functional", "settings": "Homo sapiens"}}, "note": "Activity calls are given as the source filed them.", "data": [{"compound": "Cc1ccccc1S(=O)(=O)N1[C@H](C#N)[C@H](c2ccc(C#CC3CCCCC3)cc2)[C@H]1CO", "values": [{"measurement": "AC50", "setting": "[1]", "value": "13 µM (active)"}, {"measurement": "AC50", "setting": "[2]", "value": "10.7 µM (active)"}]}, {"compound": "COc1ccc(-n2cc(-c3ccccc3)c3c(NN4CCOCC4)ncnc32)cc1", "values": [{"measurement": "CC50", "setting": "[3]", "value": "> 40 µM (active)"}]}, {"compound": "O=C(/C=C/c1ccccc1)N1CCN(Cc2nc(O)c3ccccc3n2)CC1", "values": [{"measurement": "AC50", "setting": "Cytochrome P450 1A2", "value": "31.6 µM (inconclusive)"}, {"measurement": "IC50", "setting": "Beta-galactosidase", "value": "> 80 µM (inactive)"}]}, {"compound": "COc1cccc(CN2CCN(C(=O)COc3ccc4ccccc4c3)CC2)c1", "values": [{"measurement": "EC50", "setting": "[4]", "value": "> 112 µM (not active)"}, {"measurement": "EC50", "setting": "[5]", "value": "> 112 µM (not active)"}, {"measurement": "IC50", "setting": "Beta-galactosidase", "value": "> 80 µM (inactive)"}]}, {"compound": "CSC1=C(C#N)C(c2ccccc2Cl)C2=C(O)c3ccccc3C2=N1", "note": "(stereo not given)", "values": [{"measurement": "AC50", "setting": "Cytochrome P450 3A4", "value": "inconclusive"}]}, {"compound": "COc1ccc(C#Cc2ccc([C@@H]3[C@@H](CO)N4CCCCN(C(=O)Nc5ccccc5)C[C@H]34)cc2)cc1", "values": [{"measurement": "AC50", "setting": "[6]", "value": "1.29 µM (active)"}, {"measurement": "AC50", "setting": "[7]", "value": "11.4 µM (active)"}, {"measurement": "AC50", "setting": "[8]", "value": "6.46 µM (active)"}]}, {"compound": "O=C1C(Cl)=C(Cl)C(=O)N1c1ccccc1Cl", "values": [{"measurement": "IC50", "setting": "[9]", "value": "> 100 µM (not active)"}, {"measurement": "IC50", "setting": "Bcl-2-related protein A1 [10]", "value": "3.64 µM (active)"}, {"measurement": "IC50", "setting": "Bcl-2-related protein A1 [11]", "value": "10.2 µM (active)"}]}, {"compound": "CN(C)S(=O)(=O)c1ccc(C(=O)Nc2nc(-c3cccs3)cs2)cc1", "values": [{"measurement": "AC50", "setting": "[12]", "value": "0.879 µM (active)"}, {"measurement": "AC50", "setting": "[13]", "value": "9.43 µM (active)"}, {"measurement": "EC50", "setting": "[14]", "value": "102 µM (active)"}, {"measurement": "AC50", "setting": "[15]", "value": "> 70 µM (inactive)"}, {"measurement": "EC50", "setting": "[16]", "value": "79.7 µM (active)"}, {"measurement": "AC50", "setting": "[17]", "value": "67.7 µM (active)"}]}, {"compound": "O=C(OC1CCN(c2ncc(C(F)(F)F)cc2Cl)CC1)c1ccccc1", "values": [{"measurement": "AC50", "setting": "Cytochrome P450 3A4", "value": "inconclusive"}]}, {"compound": "CCCCc1c(C)nc2ccc(Br)cc2c1SCCC#N", "values": [{"measurement": "IC50", "setting": "Prothrombin", "value": "> 50 µM (not active)"}, {"measurement": "CC50", "setting": "[18]", "value": "16.3 µM (active)"}]}, {"compound": "Cc1ccc(NC2=C(Cl)C(=O)N(c3ccc(C)cc3)C2=O)cc1", "values": [{"measurement": "IC50", "setting": "[9]", "value": "> 100 µM (not active)"}, {"measurement": "IC50", "setting": "Bcl-2-related protein A1 [10]", "value": "2.54 µM (active)"}, {"measurement": "IC50", "setting": "Bcl-2-related protein A1 [11]", "value": "1.7 µM (active)"}]}, {"compound": "C[C@H](CO)N1C[C@H](C)[C@H](CN(C)C(=O)Nc2ccc3c(c2)OCO3)Oc2ncc(-c3cccc(C(F)(F)F)c3)cc2C1=O", "values": [{"measurement": "AC50", "setting": "[8]", "value": "14.1 µM (active)"}]}, {"compound": "CCC(=O)N1CCN(c2ccc(NC(=O)c3cccs3)cc2)CC1", "values": [{"measurement": "AC50", "setting": "Cytochrome P450 2C9 [19]", "value": "inconclusive"}, {"measurement": "AC50", "setting": "Cytochrome P450 3A4", "value": "inconclusive"}, {"measurement": "AC50", "setting": "Cytochrome P450 2C19", "value": "0.501 µM (inconclusive)"}]}, {"compound": "FC(F)(F)c1nnc2c(Sc3ccccc3)nc3ccc(Cl)cc3n12", "values": [{"measurement": "EC50", "setting": "[20]", "value": "4.19 µM (active)"}, {"measurement": "EC50", "setting": "BJ [21]", "value": "0.599 µM (active)"}, {"measurement": "AC50", "setting": "Paired box protein Pax-8", "value": "1.52 µM (active)"}, {"measurement": "EC50", "setting": "BJ [22]", "value": "1.8 µM (inconclusive)"}, {"measurement": "AC50", "setting": "Cytochrome P450 3A4", "value": "inconclusive"}, {"measurement": "EC50", "setting": "BJ [23]", "value": "23.4 µM (active)"}, {"measurement": "AC50", "setting": "Cytochrome P450 2C9 [24]", "value": "8.91 µM (inconclusive)"}, {"measurement": "AC50", "setting": "INS1", "value": "7.41 µM (active)"}, {"measurement": "EC50", "setting": "BJ [25]", "value": "3.65 µM (active)"}]}]}
